Biological target: T1, Itk (Homo sapiens, UniProt Q08881)
T1 sequence (Q08881 1-620): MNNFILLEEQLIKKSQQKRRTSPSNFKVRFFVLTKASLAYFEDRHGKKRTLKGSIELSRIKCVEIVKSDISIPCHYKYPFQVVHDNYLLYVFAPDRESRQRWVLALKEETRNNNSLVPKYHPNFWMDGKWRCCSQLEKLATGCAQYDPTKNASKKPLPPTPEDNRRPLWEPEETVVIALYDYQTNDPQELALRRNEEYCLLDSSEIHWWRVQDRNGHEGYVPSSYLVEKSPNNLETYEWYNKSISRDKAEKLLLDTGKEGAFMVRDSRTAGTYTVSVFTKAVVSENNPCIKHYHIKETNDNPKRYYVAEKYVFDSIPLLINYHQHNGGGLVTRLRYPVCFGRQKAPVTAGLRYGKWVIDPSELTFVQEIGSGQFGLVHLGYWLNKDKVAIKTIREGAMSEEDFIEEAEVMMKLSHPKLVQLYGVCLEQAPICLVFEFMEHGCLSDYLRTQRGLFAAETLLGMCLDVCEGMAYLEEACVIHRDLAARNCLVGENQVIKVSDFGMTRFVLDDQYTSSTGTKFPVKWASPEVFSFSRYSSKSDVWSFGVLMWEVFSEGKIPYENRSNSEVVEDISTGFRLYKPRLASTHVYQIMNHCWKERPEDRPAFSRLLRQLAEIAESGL
Assay: ITK inhibition assay, radioactive-phosphate incorporation
Assay type: biochemical
Conditions: [γ-33P]ATP, SAM68 peptide, 25° C.
Method: Assays were carried out in a mixture of 20 mM MOPS (pH 7.0), 10 mM MgCl2, 0.1% BSA and 1 mM DTT. […] Assays were carried out at 25° C. in the presence of 50 nM Itk. An assay stock buffer solution was prepared containing all of the reagents listed above, with the exception of ATP and the test compound of interest.
The reaction was stopped after 10 minutes by the addition of […] 0.2M phosphoric acid+0.01% TWEEN 20. A multiscreen phosphocellulose filter 96-well plate (Millipore, Cat no. MAPHN0B50) was pretreated with 100 μL 0.2M phosphoric acid+0.01% TWEEN 20 prior to the addition of […] of the stopped assay mixture. The plate was washed with 4×200 μL 0.2M phosphoric acid+0.01% TWEEN 20.
Ki(app) data were calculated from non-linear regression analysis of the initial rate data using the Prism software package (GraphPad Prism version 3.0cx for Macintosh, GraphPad Software, San Diego Calif., USA).

Row | Compound | Ki [nM]
1 | CC(C)(C)c1ccc(C(=O)Nc2cc(-c3ccncn3)c[nH]c2=O)cc1 [II-34] | 100 to 1000
2 | CNc1cncc(-c2c[nH]c(=O)c(NC(=O)c3ccc(OC4CCNCC4)cc3)c2)n1 [II-181] | < 100
3 | COCCNc1cccc(-c2c[nH]c(=O)c(NC(=O)c3ccc(N4CCCCC4)cc3)c2)n1 [II-71] | 100 to 1000
4 | CNc1cccc(-c2c[nH]c(=O)c(NC(=O)c3ccc(N4CCCCC4)cc3)c2)c1 [II-69] | 100 to 1000
5 | CNCCN(C)c1cccc(-c2c[nH]c(=O)c(NC(=O)c3ccc(N4CCCCC4)cc3)c2)n1 [II-95] | 100 to 1000
6 | O=C(Nc1cc(-c2ccncc2)c[nH]c1=O)c1ccc(N2CCNCC2)nc1 [II-100] | 100 to 1000
7 | CC(C)Oc1ccc(C(=O)Nc2cc(-c3ccncc3)c[nH]c2=O)cc1 [Compound I-21] | 100 to 1000
8 | Cn1cncc1-c1c[nH]c(=O)c(NC(=O)c2ccc(N3CCNCC3)cc2)c1 [II-144] | 100 to 1000
9 | O=C(Nc1cc(-c2ccnc(NCCO)n2)c[nH]c1=O)c1ccc(N2CCCCC2)cc1 [II-59] | 100 to 1000
10 | CNc1cncc(-c2c[nH]c(=O)c(NC(=O)c3ccc(OCCN4CCNCC4)cc3)c2)n1 [II-158] | < 100
11 | O=C(Nc1cc(-c2ccncc2)c[nH]c1=O)c1ccc(Cl)cc1 [Compound I-27] | 100 to 1000
12 | O=C(Nc1ccc(Br)cc1)c1cc(-c2ccncc2)c[nH]c1=O [III-8] | 100 to 1000
13 | O=C(Nc1ccc(N2CCNCC2)cc1)c1cc(-c2ccncc2)c[nH]c1=O [III-54] | < 100
14 | CNc1cncc(-c2c[nH]c(=O)c(NC(=O)c3ccc(N4CCC(CCO)CC4)cc3)c2)n1 [II-156] | < 100
15 | O=C(Nc1cc(-c2cccc(NCC3CCNCC3)n2)c[nH]c1=O)c1ccc(N2CCCCC2)cc1 [II-105] | 100 to 1000
16 | CNc1cncc(-c2c[nH]c(=O)c(NC(=O)c3ccc(OCCCN4CCCCC4)cc3)c2)n1 [II-177] | < 100
17 | CNc1nccc(-c2c[nH]c(=O)c(NC(=O)c3ccccc3)c2)n1 [II-64] | < 100
18 | C[C@H](CN)Nc1cccc(-c2c[nH]c(=O)c(NC(=O)c3ccc(N4CCCCC4)cc3)c2)n1 [II-129] | < 100
19 | CNc1cc(-c2c[nH]c(=O)c(NC(=O)c3ccc(OCCC4CCNCC4)cc3)c2)ncn1 [II-142] | < 100
20 | O=C(Nc1cc(-c2cncc(NC3CC3)n2)c[nH]c1=O)c1ccc(N2CCC[C@H]2CN2CCCC2)cc1 [II-176] | 100 to 1000
21 | CNc1cccc(-c2c[nH]c(=O)c(NC(=O)c3ccc(OCC4CCNCC4)cc3)c2)n1 [II-157] | < 100
22 | CNc1cncc(-c2c[nH]c(=O)c(NC(=O)c3ccc(OCCCN4CCOCC4)cc3)c2)n1 [II-182] | < 100
23 | CNc1cccc(-c2c[nH]c(=O)c(NC(=O)c3ccc(OCCN4CCNCC4)cc3)c2)n1 [II-138] | < 100
24 | O=C(Nc1cc(-c2cccc(NC3(CO)CCCC3)n2)c[nH]c1=O)c1ccc(N2CCCCC2)cc1 [II-150] | 100 to 1000

Row | Compound | Ki [nM]
25 | CC(C)[C@@H](CO)Nc1cccc(-c2c[nH]c(=O)c(NC(=O)c3ccc(N4CCCCC4)cc3)c2)n1 [II-108] | 100 to 1000
26 | CN1CCN(c2ccc(NC(=O)c3cc(-c4ccncc4)c[nH]c3=O)cc2)CC1 [III-46] | < 100
27 | CSc1nccc(-c2c[nH]c(=O)c(NC(=O)c3ccc(N4CCCCC4)cc3)c2)n1 [II-52] | 100 to 1000
28 | CNCCOc1nccc(-c2c[nH]c(=O)c(NC(=O)c3ccc(N4CCCCC4)cc3)c2)n1 [II-76] | 100 to 1000
29 | CNc1cncc(-c2c[nH]c(=O)c(NC(=O)c3ccc(OCC4CCNCC4)cc3)c2)n1 [II-153] | < 100
30 | CC(C)[C@@H](CO)Nc1cncc(-c2c[nH]c(=O)c(NC(=O)c3ccc(N4CCNCC4)cc3)c2)n1 [II-131] | < 100
31 | CNc1nc(C)cc(-c2c[nH]c(=O)c(NC(=O)c3ccc(N4CCCCC4)cc3)c2)n1 [II-130] | < 100
32 | CNC(=O)c1cccc(-c2c[nH]c(=O)c(NC(=O)c3ccc(N4CCCCC4)cc3)c2)n1 [II-124] | 100 to 1000
33 | CCNc1nccc(-c2c[nH]c(=O)c(NC(=O)c3ccc(C(C)(C)C)cc3)c2)n1 [II-22] | < 100
34 | CC[C@@H](CO)Nc1cccc(-c2c[nH]c(=O)c(NC(=O)c3ccc(N4CCCCC4)cc3)c2)n1 [II-151] | 100 to 1000
35 | CC(=O)NCCNc1cccc(-c2c[nH]c(=O)c(NC(=O)c3ccc(N4CCCCC4)cc3)c2)n1 [II-101] | 100 to 1000
36 | CNc1cncc(-c2c[nH]c(=O)c(NC(=O)c3ccc(NCCN4CCCC4)cc3)c2)n1 [II-162] | < 100
37 | CC(C)(C)c1ccc(C(=O)Nc2cc(-c3cccc(NC4CCNCC4)n3)c[nH]c2=O)cc1 [II-32] | 100 to 1000
38 | CNc1cc(-c2c[nH]c(=O)c(NC(=O)c3ccc(C4=CCNCC4)cc3)c2)ncn1 [II-137] | 100 to 1000
39 | N#Cc1cncc(-c2c[nH]c(=O)c(NC(=O)c3ccc(N4CCC[C@H]4CN4CCCC4)cc3)c2)c1 [II-154] | 100 to 1000
40 | O=C(Nc1cc(-c2ccncc2)c[nH]c1=O)c1ccc(O)cc1 [Compound I-47] | 100 to 1000
41 | CCc1cc(-c2c[nH]c(=O)c(NC(=O)c3ccc(N4CCCCC4)cc3)c2)nc(NC)n1 [II-66] | < 100
42 | COc1ccc(NC(=O)c2cc(-c3ccncc3)c[nH]c2=O)cc1OC [III-16] | 100 to 1000
43 | O=C(Nc1ccc(N2CCC(O)CC2)cc1)c1cc(-c2ccncc2)c[nH]c1=O [III-52] | < 100
44 | O=C(Nc1cc(-c2cccc(CO)n2)c[nH]c1=O)c1ccc(N2CCCCC2)cc1 [II-121] | 100 to 1000
45 | O=C(Nc1ccc(C2CCCCC2)cc1)c1cc(-c2ccncc2)c[nH]c1=O [III-43] | 100 to 1000
46 | CNc1cc(-c2c[nH]c(=O)c(NC(=O)c3ccc(N4CCNCC4)cc3)c2)ccn1 [II-169] | < 100
47 | O=C(Nc1cc(-c2cccc(NCCO)n2)c[nH]c1=O)c1ccc(N2CCCCC2)cc1 [II-70] | 100 to 1000
48 | O=C(Nc1ccc(N2CCOCC2)cc1)c1cc(-c2ccncc2)c[nH]c1=O [III-42] | < 100

Row | Compound | Ki [nM]
49 | CC(C)[C@H](CO)Nc1cccc(-c2c[nH]c(=O)c(NC(=O)c3ccc(N4CCCCC4)cc3)c2)n1 [II-132] | 100 to 1000
50 | CNc1cc(-c2c[nH]c(=O)c(NC(=O)c3ccc(N4CCC[C@H]4CN4CCCC4)cc3)c2)ccn1 [II-172] | < 100
51 | CCN1CCN(c2ccc(NC(=O)c3cc(-c4ccncc4)c[nH]c3=O)cc2)CC1 [III-47] | < 100
52 | CCN1CCCC1CNc1cccc(-c2c[nH]c(=O)c(NC(=O)c3ccc(N4CCCCC4)cc3)c2)n1 (centres unmarked) [II-120] | 100 to 1000
53 | O=C(Nc1ccc(N2CCCCC2)cc1)c1cc(-c2ccncc2)c[nH]c1=O [III-44] | < 100
54 | O=C(Nc1cc(-c2cccc(NC(CO)CO)n2)c[nH]c1=O)c1ccc(N2CCCCC2)cc1 [II-174] | 100 to 1000
55 | CNCCCN(C)Cc1ccc(C(=O)Nc2cc(-c3ccncc3)c[nH]c2=O)cc1 [Compound I-85] | 100 to 1000
56 | CNc1cncc(-c2c[nH]c(=O)c(NC(=O)c3ccc(N(C)CCCN(C)C)cc3)c2)n1 [II-167] | < 100
57 | CNc1cncc(-c2c[nH]c(=O)c(NC(=O)c3ccc(N4CCNCC4)cc3)c2)n1 [II-139] | < 100
58 | CCC(C)[C@@H](CO)Nc1cccc(-c2c[nH]c(=O)c(NC(=O)c3ccc(N4CCCCC4)cc3)c2)n1 (some centres unmarked) [II-152] | 100 to 1000
59 | O=C(Nc1cc(-c2ccncc2)c[nH]c1=O)c1ccc(N2CCOCC2)cc1 [Compound I-73] | 100 to 1000
60 | CNCCNc1nccc(-c2c[nH]c(=O)c(NC(=O)c3ccc(C(C)(C)C)cc3)c2)n1 [II-20] | < 100
61 | CNc1cncc(-c2c[nH]c(=O)c(NC(=O)c3ccc(N4CCN(C)CC4)cc3)c2)n1 [II-155] | < 100
62 | O=C(Nc1cc(-c2ccncc2)c[nH]c1=O)c1ccc(N2CCN(CCOCCO)CC2)cc1 [Compound I-81] | < 100
63 | N#Cc1cncc(-c2c[nH]c(=O)c(NC(=O)c3ccc(N4CCCCC4)cc3)c2)c1 [II-99] | 100 to 1000
64 | O=C(Nc1cc(-c2cc(N[C@@H]3CCNC3)ncn2)c[nH]c1=O)c1ccc(N2CCCCC2)cc1 [II-45] | 100 to 1000
65 | O=C(Nc1cc(-c2ccncc2)c[nH]c1=O)c1ccc(N2CCC(N3CCCC3)CC2)cc1 [Compound I-75] | 100 to 1000
66 | CNc1cc(-c2c[nH]c(=O)c(NC(=O)c3ccc(N4CCC[C@H]4CN4CCCC4)cc3)c2)ncn1 [II-136] | < 100
67 | CNc1nccc(-c2c[nH]c(=O)c(NC(=O)c3ccc(NCCCN)cc3)c2)n1 [II-107] | < 100
68 | CC(C)(C)C(CO)Nc1cccc(-c2c[nH]c(=O)c(NC(=O)c3ccc(N4CCCCC4)cc3)c2)n1 (centres unmarked) [II-133] | 100 to 1000
69 | O=C(Nc1cc(-c2ccccn2)c[nH]c1=O)c1ccc(N2CCCCC2)cc1 [II-140] | 100 to 1000
70 | CCc1ccc(NC(=O)c2cc(-c3ccncc3)c[nH]c2=O)cc1 [III-7] | 100 to 1000
71 | COCCCN1CCN(c2ccc(C(=O)Nc3cc(-c4ccncc4)c[nH]c3=O)cc2)CC1 [Compound I-77] | < 100

— patent publication US8338597B2, “Pyridones useful as inhibitors of kinases” (Vertex Pharmaceuticals Incorporated, priority 2004, dated 2012)
